Data as given in the OPERA property sets (Mansouri et al. 2018).

Settings: for log10 biotransformation half-life (days) / log10 BCF: fish

Question: Which melting point does the source give for `CN(C)CCc1c[nH]c2ccc(O)cc12` here?
Answer: The melting point was 146 °C.

Question: For `CC(=O)Oc1ccc2c3c1O[C@H]1[C@@H](OC(C)=O)C=C[C@H]4[C@@H](C2)N(C)CC[C@@]341`, which log10 vapour pressure (mmHg) is on record?
Answer: The log10 vapour pressure (mmHg) was -9.12.

Question: What about the melting point of the same compound?
Answer: Its melting point is 173 °C.

Question: Which boiling point does the source give for `CC(C)(C)CC(=O)Cl` here?
Answer: Its boiling point is 130 °C.

Question: Which melting point does the source give for `NS(=O)(=O)c1ccc(N2C(=O)CC(c3ccccc3)C2=O)c(Cl)c1` (centres undefined) here?
Answer: The melting point was 206 °C.

Question: For `CCCCCCCC=O`, which boiling point is on record?
Answer: Its boiling point is 171 °C.

Question: What about the log10 Henry constant (atm·m³/mol) of the same compound?
Answer: The log10 Henry constant (atm·m³/mol) was -3.29.

Question: And the log10 Koa?
Answer: The log10 Koa was 5.36.

Question: And the log10 vapour pressure (mmHg)?
Answer: Its log10 vapour pressure (mmHg) is 0.0719.

Question: What about the melting point of the same compound?
Answer: The melting point was -23 °C.

Question: Which boiling point does the source give for `c1ccc2c(c1)CCC2` here?
Answer: The boiling point was 178 °C.

Question: And the log10 Henry constant (atm·m³/mol)?
Answer: Its log10 Henry constant (atm·m³/mol) is -3.7.

Question: What about the log10 biodegradation half-life (days) of the same compound?
Answer: The log10 biodegradation half-life (days) was 0.778.

Question: And the log10 vapour pressure (mmHg)?
Answer: The log10 vapour pressure (mmHg) was 0.166.

Question: And the melting point?
Answer: The melting point was -51.4 °C.

Question: Which boiling point does the source give for `SCCCCCCCCS` here?
Answer: Its boiling point is 270 °C.

Question: What does the source list for `ClC(Cl)(Cl)c1ccccc1`?
Answer: boiling point: 221 °C; log10 vapour pressure (mmHg): -0.383; melting point: -5 °C; ready biodegradability: readily biodegradable

Question: What does the source list for `CCOC(=O)c1cc2ccccc2o1`?
Answer: boiling point: 276 °C; melting point: 30.5 °C

Question: Which melting point does the source give for `CCCN(CCC)S(=O)(=O)c1ccc(C(=O)O)cc1` here?
Answer: The melting point was 195 °C.

Question: Which melting point does the source give for `COc1ccc(C(N)=O)cc1OC` here?
Answer: The melting point was 164 °C.

Question: What does the source list for `COc1cccc(C=O)c1`?
Answer: boiling point: 231 °C; ready biodegradability: readily biodegradable

Question: For `CC(C)(C)NC[C@H](O)COc1nsnc1N1CCOCC1`, which melting point is on record?
Answer: Its melting point is 202 °C.

Question: What does the source list for `OC(c1ccc(Cl)cc1)(c1cncnc1)c1ccccc1Cl` (centres undefined)?
Answer: log10 Koc (L/kg): 2.78; melting point: 118 °C; log10 biotransformation half-life (days): 0.57

Question: For `O=[N+]([O-])c1ccc2c(c1)Cc1cc([N+](=O)[O-])ccc1-2`, which melting point is on record?
Answer: Its melting point is 334 °C.

Question: Which results are given for `CC(Oc1ccc(Cl)cc1Cl)C(=O)O` (centres undefined)?
Answer: log10 Koc (L/kg): 2.23; log10 vapour pressure (mmHg): -6.73; melting point: 122 °C

Question: Which boiling point does the source give for `COc1ccc(C(C)(C)C)cc1` here?
Answer: The boiling point was 238 °C.

Question: For `CCCCCCCCCCCCCCCCCCCCCC(=O)OCC`, which melting point is on record?
Answer: The melting point was 50 °C.

Question: For `CC(Cl)(Cl)C(=O)[O][Na]`, which log10 Koc (L/kg) is on record?
Answer: Its log10 Koc (L/kg) is 0.

Question: What about the log10 BCF of the same compound?
Answer: The log10 BCF was 0.86.

Question: Which results are given for `NC(=O)c1ccccc1Cl`?
Answer: log10 Koc (L/kg): 1.51; melting point: 143 °C

Question: Which melting point does the source give for `CC(=O)c1ccc2ccccc2c1O` here?
Answer: Its melting point is 101 °C.

Question: With `CCCCC(C)O` (centres undefined) as the compound, how does the boiling point read?
Answer: The boiling point was 136 °C.

Question: And the log10 vapour pressure (mmHg)?
Answer: The log10 vapour pressure (mmHg) was 0.396.

Question: And the ready biodegradability?
Answer: The ready biodegradability was “not readily biodegradable”.

Question: Which results are given for `CC(C)(C)c1ccc(O)cc1`?
Answer: ready biodegradability: not readily biodegradable; log10 BCF: 1.83; log10 biotransformation half-life (days): -0.87

Question: With `CCCC#CCCCC(=O)O` as the compound, how does the melting point read?
Answer: The melting point was -3 °C.

Question: With `CCOc1cc(Oc2ccc(C(F)(F)F)cc2Cl)ccc1[N+](=O)[O-]` as the compound, how does the boiling point read?
Answer: Its boiling point is 358 °C.

Question: And the log10 Koc (L/kg)?
Answer: The log10 Koc (L/kg) was 5.

Question: What about the log10 vapour pressure (mmHg) of the same compound?
Answer: Its log10 vapour pressure (mmHg) is -6.7.

Question: What about the melting point of the same compound?
Answer: Its melting point is 84 °C.

Question: With `C=CCCCCC(=O)O` as the compound, how does the boiling point read?
Answer: The boiling point was 226 °C.

Question: What about the melting point of the same compound?
Answer: Its melting point is -6.5 °C.

Question: Which results are given for `BrCC1CO1` (centres undefined)?
Answer: boiling point: 135 °C; melting point: -40 °C

Question: With `CCC(C)=NNc1ccc([N+](=O)[O-])cc1[N+](=O)[O-]` as the compound, how does the melting point read?
Answer: The melting point was 117 °C.

Question: Which melting point does the source give for `c1ccc2c(c1)CC1c3ccccc3CCN1C2` (centres undefined) here?
Answer: Its melting point is 85 °C.

Question: And the ready biodegradability?
Answer: The ready biodegradability was “not readily biodegradable”.

Question: Which results are given for `C#CCCCCCCCCCC`?
Answer: boiling point: 215 °C; melting point: -19 °C

Question: With `C=CCC(CC=C)(C(=O)OCC)C(=O)OCC` as the compound, how does the boiling point read?
Answer: The boiling point was 244 °C.

Question: With `NC(=O)Nc1cccc(Cl)c1` as the compound, how does the log10 Koc (L/kg) read?
Answer: The log10 Koc (L/kg) was 2.01.

Question: With `ClC(Cl)I` as the compound, how does the boiling point read?
Answer: The boiling point was 132 °C.

Question: For `CCCCCCCOC(=O)CCCC`, which boiling point is on record?
Answer: Its boiling point is 245 °C.

Question: What about the melting point of the same compound?
Answer: The melting point was -46.4 °C.

Question: With `ON=C1CCCCC1` as the compound, how does the boiling point read?
Answer: The boiling point was 206 °C.

Question: What about the log10 vapour pressure (mmHg) of the same compound?
Answer: The log10 vapour pressure (mmHg) was -1.55.

Question: What about the melting point of the same compound?
Answer: The melting point was 90 °C.

Question: For `C=Cc1ccc(Br)cc1`, which boiling point is on record?
Answer: Its boiling point is 212 °C.

Question: And the log10 vapour pressure (mmHg)?
Answer: Its log10 vapour pressure (mmHg) is -0.108.

Question: And the melting point?
Answer: The melting point was 7.7 °C.

Question: For `CCCc1ccco1`, which boiling point is on record?
Answer: The boiling point was 115 °C.

Question: Which melting point does the source give for `COc1cc(C=CC=O)ccc1O` here?
Answer: The melting point was 84 °C.

Question: What does the source list for `O=C1C=CC(=O)O1`?
Answer: boiling point: 202 °C; log10 vapour pressure (mmHg): -0.602; melting point: 52.8 °C; ready biodegradability: readily biodegradable

Question: With `O=C(Nc1ccc2c(O)cc(S(=O)(=O)O)cc2c1)Nc1ccc2c(O)cc(S(=O)(=O)O)cc2c1` as the compound, how does the log10 BCF read?
Answer: Its log10 BCF is 0.26.

Question: Which results are given for `CN(C(=O)COc1nc2ccccc2s1)c1ccccc1`?
Answer: log10 vapour pressure (mmHg): -8.32; melting point: 135 °C

Question: Which melting point does the source give for `COc1cc(CCO)ccc1O` here?
Answer: The melting point was 41 °C.

Question: Which results are given for `Cc1ccccc1-c1ccccc1C`?
Answer: boiling point: 256 °C; melting point: 19.5 °C

Question: With `CCCC(C)C=O` (centres undefined) as the compound, how does the boiling point read?
Answer: The boiling point was 117 °C.

Question: Which melting point does the source give for `O=C1C=CC(=O)c2c(Cl)cccc21` here?
Answer: Its melting point is 163 °C.

Question: With `O=C(O)c1ccc(Cl)c([N+](=O)[O-])c1` as the compound, how does the melting point read?
Answer: Its melting point is 183 °C.

Question: With `CN1CCc2cc3c(cc2[C@H]1[C@@H]1OC(=O)c2c1ccc1c2OCO1)OCO3` as the compound, how does the melting point read?
Answer: The melting point was 194 °C.

Question: What does the source list for `Cc1ccc2cc3ccccc3cc2c1`?
Answer: log10 vapour pressure (mmHg): -5.27; melting point: 209 °C; log10 biotransformation half-life (days): -0.02

Question: For `Cc1c[nH]c(C)c1`, which boiling point is on record?
Answer: Its boiling point is 168 °C.

Question: Which melting point does the source give for `CS(=O)(=O)c1ccccc1` here?
Answer: Its melting point is 86 °C.

Question: With `CC1(C)[C@@H]2CC[C@@]1(C)[C@H](O)C2` as the compound, how does the melting point read?
Answer: Its melting point is 209 °C.

Question: Which melting point does the source give for `CP(=O)(O)CCC(N)C(=O)[O-].[NH4+]` (centres undefined) here?
Answer: The melting point was 215 °C.

Question: With `CC(C)CCC[C@@H](C)[C@H]1CC[C@H]2[C@@H]3CC=C4C[C@@H](O)CC[C@]4(C)[C@H]3CC[C@]12C` as the compound, how does the boiling point read?
Answer: Its boiling point is 360 °C.

Question: What about the melting point of the same compound?
Answer: The melting point was 145 °C.

Question: For `CC(C#N)CCC#N` (centres undefined), which boiling point is on record?
Answer: The boiling point was 263 °C.

Question: What about the log10 vapour pressure (mmHg) of the same compound?
Answer: Its log10 vapour pressure (mmHg) is -2.29.

Question: And the melting point?
Answer: Its melting point is -45 °C.

Question: With `CC(O)CC(C)O` (centres undefined) as the compound, how does the boiling point read?
Answer: Its boiling point is 199 °C.

Question: What about the ready biodegradability of the same compound?
Answer: Its ready biodegradability is “readily biodegradable”.

Question: For `C#CC(C)(C)NC(=O)c1ccccc1`, which log10 Koc (L/kg) is on record?
Answer: The log10 Koc (L/kg) was 1.54.

Question: For `CC(CC(C(N)=O)(c1ccccc1)c1ccccc1)N(C)C` (centres undefined), which melting point is on record?
Answer: Its melting point is 137 °C.
